Source: ChEMBL document CHEMBL4414570, “Indole-Diterpenoids with Protein Tyrosine Phosphatase Inhibitory Activities from the Marine-Derived Fungus Penicillium sp. KFD28” (J Nat Prod, 2019)
The source made the active and inactive calls. The calls are words filed in the database; no cut-off is given here.

Assays:
[1] = target: Dual specificity protein phosphatase 3 (Homo sapiens) (UniProt P51452); assay: Inhibition of recombinant human VHR expressed in Escherichia coli using p-nitrophenyl phosphate as substrate preincubated for 15 mins followed by substrate addition and measured after 60 mins
[2] = test system: K562; assay: Cytotoxicity against human K562 cells assessed as cell viability incubated for 48 hrs by MTT assay; assay type: functional, cell-based
[3] = test system: A549; assay: Cytotoxicity against human A549 cells assessed as cell viability incubated for 48 hrs by MTT assay; assay type: functional, cell-based
[4] = test system: SGC-7901; assay: Cytotoxicity against human SGC7901 cells assessed as cell viability incubated for 48 hrs by MTT assay; assay type: functional, cell-based
[5] = test system: HeLa; assay: Cytotoxicity against human HeLa cells assessed as cell viability incubated for 48 hrs by MTT assay; assay type: functional, cell-based
[6] = target: T1, Tyrosine-protein phosphatase non-receptor type 1 (Homo sapiens, UniProt P18031); assay: Inhibition of recombinant human PTP1B expressed in Escherichia coli using p-nitrophenyl phosphate as substrate preincubated for 15 mins followed by substrate addition and measured after 60 mins
T1 sequence (P18031 whole entry): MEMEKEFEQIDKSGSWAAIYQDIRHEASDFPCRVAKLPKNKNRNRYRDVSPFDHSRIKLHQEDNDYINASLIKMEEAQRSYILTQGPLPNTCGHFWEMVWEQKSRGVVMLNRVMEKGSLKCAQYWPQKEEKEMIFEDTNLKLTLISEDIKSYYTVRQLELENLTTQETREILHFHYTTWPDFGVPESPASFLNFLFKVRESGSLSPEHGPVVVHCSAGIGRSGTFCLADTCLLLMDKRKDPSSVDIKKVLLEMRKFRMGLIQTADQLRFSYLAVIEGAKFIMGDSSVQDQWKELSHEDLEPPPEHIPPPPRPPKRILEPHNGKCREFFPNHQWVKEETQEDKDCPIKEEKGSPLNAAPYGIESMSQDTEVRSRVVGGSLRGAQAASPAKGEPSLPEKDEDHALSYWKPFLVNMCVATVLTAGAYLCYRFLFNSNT

[7] = target: T2, Tyrosine-protein phosphatase non-receptor type 2 (Homo sapiens, UniProt P17706); assay: Inhibition of recombinant human TCPTP expressed in Escherichia coli using p-nitrophenyl phosphate as substrate preincubated for 15 mins followed by substrate addition and measured after 60 mins
T2 sequence (P17706 whole entry): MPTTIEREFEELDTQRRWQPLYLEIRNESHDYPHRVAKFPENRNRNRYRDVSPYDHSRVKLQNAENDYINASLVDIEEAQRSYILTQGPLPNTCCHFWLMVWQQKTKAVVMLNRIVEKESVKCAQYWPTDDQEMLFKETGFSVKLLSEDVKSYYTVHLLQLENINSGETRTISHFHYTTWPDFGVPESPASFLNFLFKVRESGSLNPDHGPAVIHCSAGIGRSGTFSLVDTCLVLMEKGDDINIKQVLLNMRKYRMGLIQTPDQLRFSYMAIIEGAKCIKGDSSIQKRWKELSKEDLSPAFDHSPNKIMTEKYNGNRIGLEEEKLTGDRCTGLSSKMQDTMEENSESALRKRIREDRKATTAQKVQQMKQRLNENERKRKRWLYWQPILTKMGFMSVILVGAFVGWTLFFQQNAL

[8] = target: Receptor-type tyrosine-protein phosphatase S (Homo sapiens, UniProt Q13332); assay: Inhibition of recombinant human PTPsigma expressed in Escherichia coli using p-nitrophenyl phosphate as substrate preincubated for 15 mins followed by substrate addition and measured after 60 mins
Sequence of Receptor-type tyrosine-protein phosphatase S (Q13332 whole entry): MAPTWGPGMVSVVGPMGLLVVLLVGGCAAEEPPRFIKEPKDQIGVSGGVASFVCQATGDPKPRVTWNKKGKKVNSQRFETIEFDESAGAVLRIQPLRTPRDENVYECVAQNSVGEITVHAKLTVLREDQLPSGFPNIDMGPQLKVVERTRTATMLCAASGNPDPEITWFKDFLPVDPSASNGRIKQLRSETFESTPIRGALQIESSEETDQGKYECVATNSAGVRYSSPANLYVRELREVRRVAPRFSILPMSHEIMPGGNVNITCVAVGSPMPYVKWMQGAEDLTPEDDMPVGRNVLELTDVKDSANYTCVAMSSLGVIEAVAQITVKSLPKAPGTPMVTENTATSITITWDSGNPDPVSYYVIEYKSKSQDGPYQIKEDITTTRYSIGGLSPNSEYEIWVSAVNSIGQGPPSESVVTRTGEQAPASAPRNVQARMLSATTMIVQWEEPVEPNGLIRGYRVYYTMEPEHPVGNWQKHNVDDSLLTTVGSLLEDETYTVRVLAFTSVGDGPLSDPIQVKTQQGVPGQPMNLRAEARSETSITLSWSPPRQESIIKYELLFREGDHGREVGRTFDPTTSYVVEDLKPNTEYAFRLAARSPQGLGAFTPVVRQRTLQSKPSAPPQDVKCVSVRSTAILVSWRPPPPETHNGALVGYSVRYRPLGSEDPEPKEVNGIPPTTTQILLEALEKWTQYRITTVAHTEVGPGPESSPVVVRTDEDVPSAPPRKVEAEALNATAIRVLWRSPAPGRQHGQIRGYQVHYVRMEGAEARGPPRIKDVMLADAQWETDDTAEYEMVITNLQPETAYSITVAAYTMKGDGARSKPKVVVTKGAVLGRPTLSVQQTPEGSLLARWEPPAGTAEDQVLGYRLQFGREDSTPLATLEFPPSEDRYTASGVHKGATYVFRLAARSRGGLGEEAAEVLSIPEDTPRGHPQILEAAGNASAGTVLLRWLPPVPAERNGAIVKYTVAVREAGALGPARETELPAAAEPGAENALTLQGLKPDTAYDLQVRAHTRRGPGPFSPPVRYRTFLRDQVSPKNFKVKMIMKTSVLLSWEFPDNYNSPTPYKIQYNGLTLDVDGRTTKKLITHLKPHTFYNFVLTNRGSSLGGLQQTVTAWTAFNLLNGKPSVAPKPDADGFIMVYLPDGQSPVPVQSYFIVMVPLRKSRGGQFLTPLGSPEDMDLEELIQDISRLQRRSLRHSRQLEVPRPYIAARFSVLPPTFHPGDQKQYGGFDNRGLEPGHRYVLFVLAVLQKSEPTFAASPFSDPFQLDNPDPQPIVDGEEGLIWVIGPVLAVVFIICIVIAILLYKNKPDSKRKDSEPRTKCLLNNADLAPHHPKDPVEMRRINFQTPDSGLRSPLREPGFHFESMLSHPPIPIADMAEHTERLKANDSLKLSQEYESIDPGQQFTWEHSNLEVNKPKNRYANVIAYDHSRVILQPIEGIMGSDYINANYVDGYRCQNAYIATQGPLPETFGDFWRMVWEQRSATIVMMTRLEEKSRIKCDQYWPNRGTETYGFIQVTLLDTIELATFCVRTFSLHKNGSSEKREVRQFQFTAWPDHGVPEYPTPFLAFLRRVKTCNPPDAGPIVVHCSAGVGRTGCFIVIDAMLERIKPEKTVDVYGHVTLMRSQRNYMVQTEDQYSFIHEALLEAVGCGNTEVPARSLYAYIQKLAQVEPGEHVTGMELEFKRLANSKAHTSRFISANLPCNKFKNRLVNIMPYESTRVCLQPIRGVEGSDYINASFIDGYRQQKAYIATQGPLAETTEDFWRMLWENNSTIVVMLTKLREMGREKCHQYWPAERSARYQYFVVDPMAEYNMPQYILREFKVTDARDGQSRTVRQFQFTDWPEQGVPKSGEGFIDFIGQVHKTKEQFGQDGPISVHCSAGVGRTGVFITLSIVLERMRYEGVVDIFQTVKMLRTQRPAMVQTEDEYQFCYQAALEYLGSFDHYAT

Sequence of Dual specificity protein phosphatase 3 (Homo sapiens) (P51452 whole entry, looked up): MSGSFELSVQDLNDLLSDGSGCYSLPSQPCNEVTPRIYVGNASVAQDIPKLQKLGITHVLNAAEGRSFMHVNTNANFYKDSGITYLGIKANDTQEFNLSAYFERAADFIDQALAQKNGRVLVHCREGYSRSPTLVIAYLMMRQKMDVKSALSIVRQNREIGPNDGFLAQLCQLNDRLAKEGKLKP

Compound | inhibition [1] | Activity [2] | Activity [3] | Activity [4] | Activity [5] | IC50 [6] | IC50 [7] | IC50 [8]
CC(C)(O)[C@@H]1CC=C2[C@H](CC[C@@]3(C)[C@H]2CC[C@H]2Cc4c([nH]c5ccccc45)[C@@]23C)O1 | inactive | inactive | inactive | inactive | inactive | – | – | –
CC1(C)O[C@@]23CC[C@@]4(C)[C@@](O)(CC[C@H]5Cc6c([nH]c7ccccc67)[C@@]54C)C2=CC(=O)[C@H]1O3 | inactive | inactive | inactive | inactive | inactive | – | – | –
CC(C)(O)[C@@H]1OC(=O)C=C2[C@H](CC[C@@]3(C)[C@@]2(O)CC[C@H]2Cc4c([nH]c5ccccc45)[C@@]23C)O1 | inactive | inactive | inactive | inactive | inactive | – | – | –
CC(C)(O)[C@H]1O[C@H]2CC[C@@]3(C)[C@@](O)(CC[C@H]4C(=O)c5c([nH]c6ccccc56)[C@@]43C)C2=CC1=O | inactive | inactive | inactive | inactive | inactive | 23 µM | 35 µM | –
CC(C)(O)[C@H]1O[C@H]2CC[C@@]3(C)[C@@](O)(CC[C@@H](CC(=O)c4ccccc4N)[C@]3(C)C(=O)O)C2=CC1=O | inactive | inactive | inactive | inactive | inactive | – | – | –
C[C@]12CC[C@@H]3OCC(=O)C=C3[C@]1(O)CC[C@H]1Cc3c([nH]c4ccccc34)[C@@]12C | inactive | inactive | inactive | inactive | inactive | 27 µM | – | –
CC(C)(O)[C@@H]1CC[C@]2(C=O)[C@H](CC[C@@]3(C)[C@H]2CC[C@H]2Cc4c([nH]c5ccccc45)[C@@]23C)O1 | inactive | inactive | inactive | inactive | inactive | – | – | –
CC1(C)CC2=C(Cc3cc4c5c([nH]c4cc32)[C@@]2(C)[C@@H](CC[C@@]3(O)C4=CC(=O)[C@@H](C(C)(C)O)O[C@@]4(O)CC[C@@]32C)C5)C(C)(C)O1 | inactive | inactive | inactive | inactive | inactive | – | – | –
CC1(C)C=C2c3cc4[nH]c5c(c4cc3C[C@@H]2C(C)(C)O1)C[C@@H]1CC[C@@]2(O)C3=CC(=O)[C@@H](C(C)(C)O)O[C@@]3(O)CC[C@]2(C)[C@@]51C | inactive | inactive | inactive | inactive | inactive | – | – | –
CC1(C)C[C@H]2[C@@H]3C(=O)CC[C@]4(C)[C@@]5(C)c6[nH]c7ccccc7c6C[C@@H]5CC[C@@]34O[C@@]2(O)[C@@H]1O | inactive | inactive | inactive | inactive | inactive | 14 µM | – | 38 µM
CC1(C)CC2=C(Cc3cc4c(cc32)NC(=O)[C@@]2(C)[C@@H](CC[C@@]3(O)C5=CC(=O)[C@@H](C(C)(C)O)O[C@H]5CC[C@@]32C)CC4=O)C(C)(C)O1 | inactive | inactive | inactive | inactive | inactive | – | – | –
CC(C)(O)[C@H]1O[C@@]2(O)CC[C@@]3(C)C(=CC[C@H]4Cc5c([nH]c6ccccc56)[C@@]43C)C2=CC1=O | inactive | inactive | inactive | inactive | inactive | 13 µM | 37 µM | –
